The values below come from patent publication US12371430B2, “5-morpholin-4-yl-pyrazolo[4,3-b]pyridine derivatives” (Merck Patent GmbH, priority 2018, dated 2025).

One experiment deals with ATR/ATRIP (Homo sapiens (Human), UniProt Q13535). The experiment in a line: ATR/ATRIP kinase assay (TR-FRET, p53 Ser15 phosphorylation). Particulars: 0.5 μM ATP, 50 nM p53. It is filed as biochemical. As for the experimental part:
ATR/ATRIP Kinase Assay—Measurement of ATR/ATRIP Inhibition
The IC50 value was determined by an ATR/ATRIP enzymatic assay. The assay comprises two steps: the enzymatic reaction and the detection step. First, a mixture of ATR/ATRIP protein (Ataxia Telangiectasia and Rad3-related protein/ATR interacting protein), the compound in question at different concentrations, p53 as substrate protein and adenosine triphosphate (ATP) are incubated in assay buffer. ATR phosporylates p53 at Ser15 and other residues. The amount of phosphorylated p53 is then detected using specific antibodies and the TR-FRET assay technology.
In detail: The ATR/ATRIP enzymatic assay is performed as a TR-FRET-(HTRF™, Cisbio Bioassays) based 384-well assay. In a first step, purified human recombinant ATR/ATRIP (human ATR, full length, GenBank ID: NM_001184.3, and human ATRIP, full length, GenBank ID AF451323.1, co-expressed in a mammalian cell line) is incubated in assay buffer for 15 minutes at 22° C. with test compound at different concentrations or without test compound (as a negative control). The assay buffer contains 25 mM HEPES pH 8.0, 10 mM Mg(CH3COO)2, 1 mM MnCl2, 0.1% BSA, 0.01% Brij® 35, and 5 mM dithiothreitol (DTT). An Echo 555 (Labcyte) is used for dispensing of compound solutions. Then, in a second step, purified human recombinant cmyc-tagged p53 (human p53, full length, GenBank ID: BC003596, expressed in Sf21 insect cells) and ATP are added and the reaction mixture is incubated for 25-35 minutes, typically 25 minutes, at 22° C. The pharmacologically relevant assay volume is 5 μl. The final concentrations in the assay during incubation of the reaction mixture are 0.3-0.5 nM, typically 0.3 nM, ATR/ATRIP, 50 nM p53, and 0.5 μM ATP. The enzymatic reaction is stopped by the addition of EDTA. The generation of phosphorylated p53 as a result of the ATR mediated reaction in the presence of ATP is detected by using specific antibodies [labeled with the fluorophores europium (Eu) as donor and d2 as acceptor (Cisbio Bioassays)] enabling FRET. For this purpose, 2 μl of antibody-containing stop solution (12.5 mM HEPES pH 8.0, 125 mM EDTA, 30 mM sodium chloride, 300 mM potassium fluoride, 0.006% Tween-20, 0.005% Brij® 35, 0.21 nM anti-phospho-p53(Ser15)-Eu antibody, 15 nM anti-cmyc-d2 antibody) are added to the reaction mixture. Following signal development for 2 h the plates are analyzed in an EnVision (PerkinElmer) microplate reader using the TRF mode with laser excitation. Upon excitation of the donor europium at 340 nm the emitted fluorescence light of the acceptor d2 at 665 nm as well as from the donor Eu at 615 nm are measured. The amount of phosphorylated p53 is directly proportional to the ratio of the amounts of emitted light i.e. the ratio of the relative fluorescence units (rfu) at 665 nm and 615 nm. Data are processed employing the Genedata Screener software. In particular, IC50 values are determined in the usual manner by fitting a dose-response curve to the data points using nonlinear regression analysis. • IC50=half maximal inhibitory concentration • ATP=Adenosine triphosphate • TR-FRET=Time-Resolved Fluorescence Resonance Energy Transfer • HTRF®=Homogeneous Time Resolved Fluorescence • HEPES=2-(4-(2-Hydroxyethyl)-1-piperazinyl)-ethanesulfonic acid • Mg(CH3COO)2=Magnesium acetate • MnCl2=Manganese(II)-chloride • BSA=Bovine Serum Albumin • EDTA=Ethylendiamine Tetraacetate • TRF=Time Resolved Fluorescence pCHK1 Cellular Assay

The test system of experiment [1] is phosphorylation of Chk1 (Ser 345) in HT29 colon adenocarcinoma cells. The experiment in a line: pCHK1 cellular assay. It is filed as cell-based. The settings on record: Homo sapiens, HT-29, hydroxyurea 3 mM, 4 h. From the text:
Chk1 kinase acts downstream of ATR and has a key role in DNA damage checkpoint control. Activation of Chk1 involves phosphorylation of Ser317 and Ser345 (regarded as the preferential target for phosphorylation/activation by ATR) and occurs in response to blocked DNA replication and certain forms of genotoxic stress. Phosphorylation at Ser 345 serves to localize Chk1 to the nucleus following checkpoint activation.
This assay measures a decrease in phosphorylation of Chk1 (Ser 345) in HT29 colon adenocarcinoma cells following treatment with compound and hydroxyurea (which promotes fork stalling because of dNTP depletion) and using an immunocytochemical procedure and high content imaging.
For the assay HT29 cells are plated in culture medium (DMEM high Glucose (no phenol red), 2 mM Glutamax, 1 mM Pyruvate, 10% FCS into Greiner 384 well plates, black, μclear #781090 (2500 cells/well/30 μl) and incubated for at least 20 hours at 37° C., 10% CO2 and 90% rH. Diluted test compounds (1 nM-30 μM final) and hydroxyurea (3 mM final) are added simultaneously and cells are incubated for 4 h at 37° C. After fixation/prmeabilisation with 100% MeOH (−20° C. cold) and permeabilisation with 0.2% Triton X-100 a complete immunocytochemical procedure is performed using a specific anti-pChk1 antibody (Cell Signaling, #2348BF) and fluorescently labelled secondary antibody (Alexa Fluor® 488 goat anti-rabbit F(ab′)2 fragment, Invitrogen A11070) and parallel nuclear staining for cell counting.
The nuclear localised pChk1 signal is detected on an ImageXpress Ultra confocal high content reader and reported as % positive cells (nuclei).

SMILES strings stand for the structures.

Sequence of ATR/ATRIP (Q13535 whole entry): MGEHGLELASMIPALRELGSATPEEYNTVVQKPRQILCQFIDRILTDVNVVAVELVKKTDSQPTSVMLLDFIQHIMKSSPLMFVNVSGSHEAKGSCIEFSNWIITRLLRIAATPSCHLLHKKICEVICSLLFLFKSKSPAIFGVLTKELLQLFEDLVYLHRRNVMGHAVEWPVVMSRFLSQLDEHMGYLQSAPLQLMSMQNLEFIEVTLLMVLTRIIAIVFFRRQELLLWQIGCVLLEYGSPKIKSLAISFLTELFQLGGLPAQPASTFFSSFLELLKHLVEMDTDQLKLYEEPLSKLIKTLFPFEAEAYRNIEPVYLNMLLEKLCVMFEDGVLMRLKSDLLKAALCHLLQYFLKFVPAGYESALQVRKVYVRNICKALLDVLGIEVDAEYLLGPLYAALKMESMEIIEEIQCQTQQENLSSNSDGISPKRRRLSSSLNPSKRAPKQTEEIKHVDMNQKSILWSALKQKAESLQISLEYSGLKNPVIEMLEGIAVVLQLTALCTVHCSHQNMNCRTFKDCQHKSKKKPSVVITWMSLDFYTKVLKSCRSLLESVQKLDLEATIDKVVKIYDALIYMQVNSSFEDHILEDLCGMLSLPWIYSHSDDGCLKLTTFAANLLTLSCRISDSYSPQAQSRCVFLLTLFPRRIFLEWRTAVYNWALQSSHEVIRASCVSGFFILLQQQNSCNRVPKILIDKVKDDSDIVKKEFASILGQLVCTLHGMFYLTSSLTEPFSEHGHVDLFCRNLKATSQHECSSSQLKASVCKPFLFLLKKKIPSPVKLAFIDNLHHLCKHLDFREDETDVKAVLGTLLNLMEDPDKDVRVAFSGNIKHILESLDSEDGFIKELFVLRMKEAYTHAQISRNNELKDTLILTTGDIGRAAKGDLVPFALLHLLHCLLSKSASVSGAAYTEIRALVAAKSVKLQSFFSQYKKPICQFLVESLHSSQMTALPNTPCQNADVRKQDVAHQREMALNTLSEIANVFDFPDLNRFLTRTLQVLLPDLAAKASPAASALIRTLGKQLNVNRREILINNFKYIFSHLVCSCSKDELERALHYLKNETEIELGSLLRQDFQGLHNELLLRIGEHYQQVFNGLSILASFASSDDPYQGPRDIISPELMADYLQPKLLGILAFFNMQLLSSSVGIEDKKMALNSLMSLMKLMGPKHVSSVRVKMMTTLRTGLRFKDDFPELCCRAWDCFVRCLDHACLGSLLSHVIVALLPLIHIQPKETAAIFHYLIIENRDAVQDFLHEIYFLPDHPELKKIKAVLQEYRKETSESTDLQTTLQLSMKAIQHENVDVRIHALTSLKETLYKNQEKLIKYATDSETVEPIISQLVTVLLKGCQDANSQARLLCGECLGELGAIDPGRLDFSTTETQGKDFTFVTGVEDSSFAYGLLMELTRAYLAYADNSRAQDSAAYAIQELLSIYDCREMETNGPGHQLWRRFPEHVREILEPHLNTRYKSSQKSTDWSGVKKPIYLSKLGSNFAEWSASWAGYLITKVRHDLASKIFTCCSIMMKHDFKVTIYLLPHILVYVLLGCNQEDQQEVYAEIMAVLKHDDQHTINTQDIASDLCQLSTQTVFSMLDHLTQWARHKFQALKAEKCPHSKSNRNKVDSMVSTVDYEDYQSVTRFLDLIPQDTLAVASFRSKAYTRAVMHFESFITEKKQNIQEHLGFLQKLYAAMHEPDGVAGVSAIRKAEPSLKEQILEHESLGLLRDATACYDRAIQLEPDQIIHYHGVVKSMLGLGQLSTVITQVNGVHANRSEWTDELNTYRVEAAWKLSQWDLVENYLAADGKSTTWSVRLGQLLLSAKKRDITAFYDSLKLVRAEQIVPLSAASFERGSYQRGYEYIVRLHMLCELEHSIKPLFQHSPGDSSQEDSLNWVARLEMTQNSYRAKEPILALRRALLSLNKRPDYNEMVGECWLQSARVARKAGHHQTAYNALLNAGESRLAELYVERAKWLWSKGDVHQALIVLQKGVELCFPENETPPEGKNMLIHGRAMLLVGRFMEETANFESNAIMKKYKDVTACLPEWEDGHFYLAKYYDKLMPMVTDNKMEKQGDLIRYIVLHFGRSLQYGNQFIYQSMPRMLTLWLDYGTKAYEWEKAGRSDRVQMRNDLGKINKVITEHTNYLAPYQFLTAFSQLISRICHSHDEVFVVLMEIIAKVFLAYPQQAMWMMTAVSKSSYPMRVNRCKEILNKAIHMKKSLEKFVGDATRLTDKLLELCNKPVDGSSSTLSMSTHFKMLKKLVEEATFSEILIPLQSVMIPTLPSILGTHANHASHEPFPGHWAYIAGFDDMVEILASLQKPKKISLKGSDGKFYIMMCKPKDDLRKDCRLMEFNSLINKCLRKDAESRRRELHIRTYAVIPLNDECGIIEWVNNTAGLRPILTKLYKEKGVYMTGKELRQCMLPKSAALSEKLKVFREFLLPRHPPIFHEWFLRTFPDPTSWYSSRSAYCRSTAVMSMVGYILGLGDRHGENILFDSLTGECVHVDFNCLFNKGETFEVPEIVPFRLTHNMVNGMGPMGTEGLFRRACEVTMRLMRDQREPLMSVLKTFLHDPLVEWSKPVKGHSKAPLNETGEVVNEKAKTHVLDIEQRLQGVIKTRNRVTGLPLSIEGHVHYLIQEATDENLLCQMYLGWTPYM
Sequence of ATR/ATRIP (Q8WXE1 whole entry partner): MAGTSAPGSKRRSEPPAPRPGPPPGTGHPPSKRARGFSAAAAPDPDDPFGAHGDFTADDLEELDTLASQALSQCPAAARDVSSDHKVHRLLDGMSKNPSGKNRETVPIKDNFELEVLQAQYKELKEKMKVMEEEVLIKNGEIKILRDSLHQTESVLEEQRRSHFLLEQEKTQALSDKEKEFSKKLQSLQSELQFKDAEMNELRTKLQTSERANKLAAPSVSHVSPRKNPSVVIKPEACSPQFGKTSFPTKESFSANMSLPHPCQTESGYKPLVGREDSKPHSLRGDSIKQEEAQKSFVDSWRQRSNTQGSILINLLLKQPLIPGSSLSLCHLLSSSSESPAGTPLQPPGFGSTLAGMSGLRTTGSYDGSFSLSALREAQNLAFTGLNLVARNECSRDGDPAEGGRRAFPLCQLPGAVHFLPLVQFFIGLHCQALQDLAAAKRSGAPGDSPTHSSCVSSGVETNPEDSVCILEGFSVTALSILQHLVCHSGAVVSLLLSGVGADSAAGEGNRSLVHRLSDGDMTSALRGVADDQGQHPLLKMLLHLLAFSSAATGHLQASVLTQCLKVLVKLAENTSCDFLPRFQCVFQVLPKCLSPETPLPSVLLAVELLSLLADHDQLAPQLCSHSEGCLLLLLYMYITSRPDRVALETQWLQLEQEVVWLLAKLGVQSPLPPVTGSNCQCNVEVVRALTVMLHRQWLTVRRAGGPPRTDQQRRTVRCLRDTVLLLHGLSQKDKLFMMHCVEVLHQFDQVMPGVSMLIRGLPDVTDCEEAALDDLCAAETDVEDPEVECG

`C[C@@H]1COCCN1c1ccc2c(n1)c(-c1cc[nH]n1)nn2Cc1cccc(S(C)(=O)=O)c1` [Compound 57, (3R)-4-{1-[(3-Methanesulfonylphenyl)methyl]-3-(1H-pyrazol-3-yl)-1H-pyrazolo[4,3-b]pyridin-5-yl}-3-methylmorpholine]: the results for the concentration for half-maximal inhibition (IC50) (on ATR/ATRIP; in experiment [1]) were 150 nM and 1000 to 10000 nM, respectively.

Regarding `C[C@@H]1COCCN1c1cc(-c2cccnc2C(F)(F)F)c2c(n1)c(-c1cc[nH]n1)nn2C` [Compound 66, (3R)-3-Methyl-4-[1-methyl-3-(1H-pyrazol-3-yl)-7-[2-(trifluoro-methyl)pyridin-3-yl]-1H-pyrazolo[4,3-b]pyridin-5-yl]morpholine], the IC50 is 1.9 nM on ATR/ATRIP and < 10 nM in experiment [1].

`COCc1ccc(-c2cc(N3CCOC[C@H]3C)nc3c(-c4cc[nH]n4)nn(C)c23)cc1` [Compound 51, (3R)-4-{7-[4-(Methoxymethyl)phenyl]-1-methyl-3-(1H-pyrazol-3-yl)-1H-pyrazolo[4,3-b]pyridin-5-yl}-3-methylmorpholine]: the figures for the IC50 (against ATR/ATRIP; in experiment [1]) were 1.2 nM and 100 to 1000 nM, respectively.

Take `Cc1cccnc1-c1cc(N2CCOC[C@H]2C)nc2c(-c3cc[nH]n3)n[nH]c12` [Compound 39, (3R)-3-Methyl-4-[7-(3-methylpyridin-2-yl)-3-(1H-pyrazol-3-yl)-1H-pyrazolo[4,3-b]pyridin-5-yl]morpholine]: the IC50 at ATR/ATRIP is 7.9 nM; in experiment [1], 100 to 1000 nM.

`C[C@@H]1COCCN1c1cc(-c2ccc(CO)cc2)c2c(n1)c(-c1cc[nH]n1)nn2C` [Compound 52, (4-{1-Methyl-5-[(3R)-3-methylmorpholin-4-yl]-3-(1H-pyrazol-3-yl)-1H-pyrazolo[4,3-b]pyridin-7-yl}phenyl)methanol]: the IC50 was 1.4 nM at ATR/ATRIP and 10 to 100 nM in experiment [1].

In the case of `C[C@@H]1COCCN1c1cc(-c2cccc(S(C)(=O)=O)c2)c2c(n1)c(-c1ccn[nH]1)nn2C` [Compound 76, (3R)-4-[7-(3-Methanesulfonylphenyl)-1-methyl-3-(1H-pyrazol-5-yl)-1H-pyrazolo[4,3-b]pyridin-5-yl]-3-methylmorpholine], the concentration for half-maximal inhibition (IC50) on ATR/ATRIP was 28 nM; in experiment [1], 100 to 1000 nM.

On to `C[C@@H]1COCCN1c1ccc2c(n1)c(-c1cc[nH]n1)nn2-c1ccc(C#N)cc1` [Compound 60, 4-[5-[(3R)-3-Methylmorpholin-4-yl]-3-(1H-pyrazol-3-yl)-1H-pyrazolo[4,3-b]pyridin-1-yl]benzonitrile], for which the IC50 at ATR/ATRIP was 32 nM; in experiment [1] it was 1000 to 10000 nM.

As for `Cc1ccc(S(C)(=O)=O)cc1-c1cc(N2CCOC[C@H]2C)nc2c(-c3ccn[nH]3)nn(C)c12` [Compound 75, (3R)-4-[7-(5-Methanesulfonyl-2-methylphenyl)-1-methyl-3-(1H-pyrazol-5-yl)-1H-pyrazolo[4,3-b]pyridin-5-yl]-3-methylmorpholine], the IC50 at ATR/ATRIP was 21 nM; in experiment [1] it was 100 to 1000 nM.

Take `C[C@@H]1COCCN1c1cc(C(N)=O)c2[nH]nc(-c3cc[nH]n3)c2n1` [Compound 29, 5-((R)-3-Methyl-morpholin-4-yl)-3-(1H-pyrazol-3-yl)-1H-pyrazolo[4,3-b]pyridine-7-carboxylic acid amide]: the IC50 against ATR/ATRIP was 5.4 nM; in experiment [1] it was 1000 to 10000 nM.

Regarding `C[C@@H]1COCCN1c1ccc2c(n1)c(-c1cc[nH]n1)nn2-c1cccc(S(C)(=O)=O)c1` [Compound 47, 1-(3-Methanesulfonyl-phenyl)-5-((R)-3-methyl-morpholin-4-yl)-3-(1H-pyrazol-3-yl)-1H-pyrazolo[4,3-b]pyridine], the IC50 is 89 nM on ATR/ATRIP and 1000 to 10000 nM in experiment [1].

Consider `Cc1ccc(-c2cc(N3CCOC[C@H]3C)nc3c(-c4cc[nH]n4)n(C)nc23)cn1` [Compound 14, 2-Methyl-5-((R)-3-methyl-morpholin-4-yl)-7-(6-methyl-pyridin-3-yl)-3-(1H-pyrazol-3-yl)-2H-pyrazolo[4,3-b]pyridine], for which the concentration for half-maximal inhibition (IC50) was 99 nM against ATR/ATRIP and 1000 to 10000 nM in experiment [1].

Consider `Cc1ccnc(C)c1-c1cc(N2CCOC[C@H]2C)nc2c(-c3cc[nH]n3)nn(C)c12` [Compound 22, 7-(2,4-Dimethyl-pyridin-3-yl)-1-methyl-5-((R)-3-methyl-morpholin-4-yl)-3-(1H-pyrazol-3-yl)-1H-pyrazolo[4,3-b]pyridine], for which the IC50 on ATR/ATRIP is 3.3 nM; in experiment [1], 100 to 1000 nM.

For `C[C@@H]1COCCN1c1ccc2c(n1)c(-c1cc[nH]n1)nn2CCc1ccccc1` [Compound 64, 5-((R)-3-Methyl-morpholin-4-yl)-1-phenethyl-3-(1H-pyrazol-3-yl)-1H-pyrazolo[4,3-b]pyridine], the IC50 is 51 nM against ATR/ATRIP and 1000 to 10000 nM in experiment [1].

Take `CNC(=O)c1cc(N2CCOC[C@H]2C)nc2c(-c3cc[nH]n3)nn(C)c12` [Compound 31, 1-Methyl-5-((R)-3-methyl-morpholin-4-yl)-3-(1H-pyrazol-3-yl)-1H-pyrazolo[4,3-b]pyridine-7-carboxylic acid methylamide]: the IC50 is 33 nM at ATR/ATRIP and 100 to 1000 nM in experiment [1].

As for `C[C@@H]1COCCN1c1ccc2c(n1)c(-c1ccn[nH]1)nn2Cc1ccccc1` [Compound 59, (3R)-4-[1-Benzyl-3-(1H-pyrazol-5-yl)-1H-pyrazolo[4,3-b]pyridin-5-yl]-3-methylmorpholine], the IC50 is 21 nM at ATR/ATRIP and 1000 to 10000 nM in experiment [1].

`C[C@@H]1COCCN1c1cc(-c2ccnc3[nH]ccc23)c2nn(C)c(-c3cc[nH]n3)c2n1` [Compound 16, 2-Methyl-5-((R)-3-methyl-morpholin-4-yl)-3-(1H-pyrazol-3-yl)-7-(1H-pyrrolo[2,3-b]pyridin-4-yl)-2H-pyrazolo[4,3-b]pyridine]: the IC50 on ATR/ATRIP is 67 nM; in experiment [1], 1000 to 10000 nM.

On to `C[C@@H]1COCCN1c1cc(-c2ccccn2)c2c(n1)c(-c1cc[nH]n1)nn2C` [Compound 58, (3R)-3-Methyl-4-[1-methyl-3-(1H-pyrazol-3-yl)-7-(pyridin-2-yl)-1H-pyrazolo[4,3-b]pyridin-5-yl]morpholine], for which the results for the concentration for half-maximal inhibition (IC50) (on ATR/ATRIP; in experiment [1]) were 10 nM and 100 to 1000 nM, respectively.

For `Cc1cc(-c2n[nH]c3c(-c4ccc(S(C)(=O)=O)nc4C)cc(N4CCOC[C@H]4C)nc23)[nH]n1` [Compound 13, (3R)-4-[7-(6-Methanesulfonyl-2-methylpyridin-3-yl)-3-(3-methyl-1H-pyrazol-5-yl)-1H-pyrazolo[4,3-b]pyridin-5-yl]-3-methylmorpholine], the IC50 on ATR/ATRIP was 1.4 nM; in experiment [1], 100 to 1000 nM.

The IC50 is the concentration that inhibits the measured activity by half.
